The results in this text go back to patent US20260286308A1, “COMPOSITION CONTAINING EXTRACELLULAR MATRIX AND MATRIX-BOUND VESICLES FOR PRODUCING EXTRACELLULAR MATRIX AND PREPARATION METHOD THEREFOR” (HLB CELL CO., LTD, priority 2023, published 2026).

Where two headings read alike, the source gives them in different places.

The subject of series [1] is Human fibroblasts. Particulars: for extracellular matrix production: 0.02 nM triiodothyronine or 1 μM isoprenaline added to medium with insulin, EGF and hydrocortisone (Table 2), FIGS. 10 and 11. As to the method: (§1) The analysis method followed the manufacturer's instructions.
Culture media each lacking an individual factor were prepared, and then culture was performed according to Example 1.1.
Then, culture was performed according to Example 1.1.

Series [2] relates to human fibroblast/keratinocyte culture. Kind of series: Total collagen produced in culture medium of co-cultured human fibroblasts/keratinocytes after administration of NAC. The class given is cell-based. Particulars: for total collagen produced: 13 days, control without NAC 77.1-99.5 μg/mL, FIG. 27. As to the method: (§2) The human keratinocyte culture obtained by culture for 7 days according to Example 3.1.2 was removed, followed by washing once with PBS. Thereafter, 3 mL of Accutase was added, and then the keratinocytes were suspended by treatment with chemical reaction for 10 minutes in an incubator at 37° C. After 40 mL of PBS was added to the Accutase solution, the mixture was centrifuged at 800 rpm and 25° C. for 5 minutes, and the supernatant was then removed. To the keratinocyte precipitate, FAD medium (DMEM/F12 (1:1)+Glutamax-I, 1% penicillin, 2 mM L-glutamine, 10 mg/L insulin, 5.5 mg/L transferrin, 5 μg/L selenite, 50 μM L-ascorbic acid 2-phosphate, 1 μM hydrocortisone, 0.02 nM triiodothyronine (T3), 10 μg/L epidermal growth factor (EGF), and 1 μM isoproterenol) supplemented with 5% fatal bovine serum was added. The human dermal fibroblasts culture obtained by culture for 7 days in Example 3.1.1 was removed, and then the keratinocytes were dispensed thereon at a density of 1-2×10^6 cells per culture dish and cultured in an incubator at 37° C. for 24 hours.
(§3) The human fibroblast/keratinocyte culture obtained by culture for 24 hours according to Example 3.1.3 was removed, followed by washing once with PBS. To 35 mL of a serum-free FAD medium (DMEM/F12 (1:1)+Glutamax-I, 1% penicillin, 2 mM L-glutamine, 10 mg/L insulin, 5.5 mg/L transferrin, 5 μg/L selenite, 50 μM L-ascorbic acid 2-phosphate, 1 μM hydrocortisone, 0.02 nM triiodothyronine (T3), 10 μg/L epidermal growth factor (EGF), and 1 μM isoproterenol), N-acetyl cysteine (NAC) was added at a concentration of 0.1 mM, 0.5 mM, 1 mM, or 5 mM, and then the cells were cultured in an incubator at 37° C. for a total of 13 days while the medium was exchanged every 2-3 days. The culture obtained by previous culture was collected.
as §1

For series [3] the test system is unchanged. Description: Type IV collagen produced in culture medium of co-cultured human fibroblasts/keratinocytes after administration of vitamin C. It is filed as cell-based. To be noted: serum-free FAD medium, 13 days, FIG. 28. How it is done: as §2
as §3, with “vitamin C” for “N-acetyl cysteine (NAC)”, “50 μM, 100 μM,” for “0.1 mM, 0.5 mM, 1 mM,”, “200 μM,” for “5 mM,”
as §1

For series [4], the system named is Human fibroblasts. Description: Laminin content in cell culture of single-cultured human fibroblasts (anti-human laminin antibody plate kit, absorbance 450 nm). Particulars: 50 μM ascorbate-2-phosphate added to medium with insulin, EGF and hydrocortisone (Table 2); FIG. 10.
Method: To measure the amount of human laminin component in the extracellular matrix present in a culture obtained according to each example described below, quantitative analysis was conducted by using a commercially available analysis kit (TakaRa, MK107). The analysis method followed the manufacturer's instructions. Specifically, the culture was added onto a 96-well plate coated with an anti-human laminin antibody, followed by incubation. Thereafter, residues were washed off, and a chromogenic enzyme-conjugated specific antibody was added, followed by incubation. Then, quantitative analysis was conducted by measurement of the absorbance at 450 nm.
Human fibroblasts were seeded at a density of 3×10^5 cells per 150-mm^2 culture dish. […]
(§4) After being cultured according to Example 1.1.1, the cells were further cultured from day 8 using a serum-free/xeno-free culture medium [Dulbecco's Modified Eagle Medium: Ham's F-12 (1:1) supplemented with 100 (DMEM/F12) U/mL penicillin/streptomycin, 2 mM L-alanyl-L-glutamine, 5 μg/L selenium, 50 M ascorbate-2-phosphate, 10 mg/L insulin, 1 μM hydrocortisone, 0.02 nM triiodothyronine, 1 μM isoprenaline, and 10 μg/L epidermal growth factor] while the medium was exchanged at intervals of 2 to 3 days. […] The cell culture after collection was analyzed according to Example 3. […]
The subject of series [5] is Human fibroblasts. Kind of series: Total collagen content in cell culture of single-cultured human fibroblasts (Sirius Red kit, absorbance 530 nm). Particulars: 50 μM ascorbate-2-phosphate added to medium with insulin, EGF and hydrocortisone (Table 2); FIG. 11.
Method: To measure the human collagen content in the extracellular matrix present in a culture obtained according to each example described below, quantitative analysis was conducted by utilizing a commercially available Sirius Red kit (Chondrex, #9062). The analysis method followed the manufacturer's instructions. Specifically, Sirius Red solution was added to the culture, followed by incubation, and the precipitated collagen was then mixed with an acidic solution and quantitatively analyzed by measurement of absorbance at 530 nm.
Human fibroblasts were seeded at a density of 3×10^5 cells per 150-mm^2 culture dish. The cells were cultured in high-glucose Dulbecco's Modified Eagle's Medium (DMEM) supplemented with 10% fetal bovine serum and 1% penicillin for 7 days while a growth medium was exchanged every 2-3 days.
as §4
The mark [6] stands for this setting: factor individually removed from serum-free/xeno-free culture medium (Table 1), compared with medium containing all factors, FIGS. 8 and 9.
Setting [7] is: NAC at a concentration of 1 mM or higher (1 mM, 5 mM).

For the molecule `O=C[C@H](O)[C@@H](O)[C@H](O)[C@H](O)CO` [glucose], the “amount of extracellular matrix produced” value in the series with Human fibroblasts [1] (glucose concentration 55 mM in DMEM medium (compared with 5.5, 25 and 40 mM), FIGS. 14 and 15) is “reduced”.
For the molecule `C[C@]12CCC(=O)C=C1CC[C@@H]1[C@@H]2[C@@H](O)C[C@@]2(C)[C@H]1CC[C@]2(O)C(=O)CO` [hydrocortisone, reference compound], in the series with Human fibroblasts [1] (setting [6]), the “amount of extracellular matrix produced” value was “significantly reduced”.
`CC(C)NCC(O)c1ccc(O)c(O)c1` (centres unmarked) [isoprenaline, reference compound]: in the series on Human fibroblasts [1], the extracellular matrix production entry is listed as “affected”.
`CC(=O)N[C@@H](CS)C(=O)O` [NAC, N-acetyl cysteine] returned a total collagen produced in series [2] (0.1 mM NAC in serum-free FAD medium) of 122.1 to 137.5 µg/mL. The same molecule registered a total collagen produced in series [2] (0.5 mM NAC in serum-free FAD medium) of 112.7 to 130.9 µg/mL. Also, in series [2] (setting [7]), the “amount of collagen produced” value is “reduced” and the cytotoxicity entry is listed as “cytotoxicity was observed”.
On to `O=C1O[C@H]([C@@H](O)CO)C(O)=C1O` [vitamin C], for which the “Type IV collagen produced” value was 4.17 µg/mL in series [3] (50 μM vitamin C (called control group)), 5.6 µg/mL in series [3] (100 μM vitamin C) and 5.69 µg/mL in series [3] (200 μM vitamin C).
As to “insulin: additive of the serum-free/xeno-free culture medium, 10 mg/L”, the “amount of extracellular matrix produced” value in the series on Human fibroblasts [1] (setting [6]) is “significantly reduced”.
Turning to ascorbate-2-phosphate, the laminin production entry in the series with Human fibroblasts [4] was “did not affect”. Besides, the collagen production entry in the series on Human fibroblasts [5] was “greatly affected”.
Consider `N[C@@H](Cc1cc(I)c(Oc2ccc(O)c(I)c2)c(I)c1)C(=O)O` [triiodothyronine, reference compound], for which, in the series on Human fibroblasts [1], the extracellular matrix production result is reported as “affected”.
